Consider 26 molecules from ChEMBL document CHEMBL1139018, “Acetylenic TACE inhibitors. Part 3: Thiomorpholine sulfonamide hydroxamates” (Bioorg Med Chem Lett, 2006).

One data set addresses Collagenase 3 (Homo sapiens, UniProt P45452). Put plainly: Inhibition of MMP13.
Data set [1] concerns the target T1, Disintegrin and metalloproteinase domain-containing protein 17 (Homo sapiens, UniProt P78536). Put plainly: Inhibition of LPS-stimulated TNF production in THP cells at 3 uM. Type of data set: functional, cell-based.
The target of data set [2] is T1, Disintegrin and metalloproteinase domain-containing protein 17. Put plainly: Inhibition of LPS-stimulated TNF production in THP cells at 1 uM. It counts as functional, cell-based.
Data set [3] has the same target. The data set is described as follows: Inhibition of TACE.
The next data set deals with T2, Interstitial collagenase (Homo sapiens, UniProt P03956).
T2 sequence (P03956 whole entry): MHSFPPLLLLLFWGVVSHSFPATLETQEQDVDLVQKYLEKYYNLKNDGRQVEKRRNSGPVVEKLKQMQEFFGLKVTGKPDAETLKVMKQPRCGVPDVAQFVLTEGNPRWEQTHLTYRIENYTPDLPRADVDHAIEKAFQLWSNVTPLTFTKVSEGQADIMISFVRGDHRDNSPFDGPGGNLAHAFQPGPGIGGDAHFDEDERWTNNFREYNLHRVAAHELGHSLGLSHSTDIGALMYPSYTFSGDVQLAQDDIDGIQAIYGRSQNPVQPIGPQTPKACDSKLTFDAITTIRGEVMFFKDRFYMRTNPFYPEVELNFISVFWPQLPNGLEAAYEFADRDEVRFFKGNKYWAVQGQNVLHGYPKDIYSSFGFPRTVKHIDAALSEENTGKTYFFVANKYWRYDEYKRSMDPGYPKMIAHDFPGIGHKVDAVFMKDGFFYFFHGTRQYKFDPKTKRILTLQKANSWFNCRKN
The data set is described as follows: Inhibition of MMP1.

Data set [4] relates to Mus musculus. Put plainly: Inhibition of LPS-stimulated TNFalpha production in mouse at 50 mg/kg, po. It counts as functional.
The nature of data set [5]: Permeability across Caco-2 cell membrane. Type of data set: ADME, cell-based. The settings on record: human.
For data set [6], the species on record is Mus musculus. Put plainly: Inhibition of LPS-stimulated TNFalpha production in mouse. Type of data set: functional.
Data set [7] can be described thus: Bioavailability in mouse at 10 mg/kg. Type of data set: ADME, organism-based. The settings on record: in vivo.
A short description of data set [8]: Bioavailability in rat at 10 mg/kg. Type of data set: ADME, organism-based. The settings on record: in vivo.
Data set [9] is described as follows: Bioavailability in dog at 10 mg/kg. It counts as ADME, organism-based, Canis lupus familiaris. As to conditions: in vivo.

Each structure is given as a SMILES string.

As a reminder, the IC50 is the concentration that inhibits the measured activity by half. Low readings indicate greater potency in that assay, high ones weaker potency in that assay. Broadly, the inhibition is how much of the control response was suppressed. Read a high inhibition as strong suppression. For orientation: inhibition in vivo means the drop in the measured response relative to a control, in per cent. A lower inhibition in vivo goes with little suppression. By Papp is commonly meant a coefficient for how fast a substance crosses the barrier. In general, ED50 refers to the dose that gives a 50% effect, or the effect in half of the subjects. Read a high ED50 as a need for a large dose. By bioavailability is commonly meant dose-corrected exposure relative to a reference, in per cent.

T1 sequence (P78536 whole entry, the tested form may be a part): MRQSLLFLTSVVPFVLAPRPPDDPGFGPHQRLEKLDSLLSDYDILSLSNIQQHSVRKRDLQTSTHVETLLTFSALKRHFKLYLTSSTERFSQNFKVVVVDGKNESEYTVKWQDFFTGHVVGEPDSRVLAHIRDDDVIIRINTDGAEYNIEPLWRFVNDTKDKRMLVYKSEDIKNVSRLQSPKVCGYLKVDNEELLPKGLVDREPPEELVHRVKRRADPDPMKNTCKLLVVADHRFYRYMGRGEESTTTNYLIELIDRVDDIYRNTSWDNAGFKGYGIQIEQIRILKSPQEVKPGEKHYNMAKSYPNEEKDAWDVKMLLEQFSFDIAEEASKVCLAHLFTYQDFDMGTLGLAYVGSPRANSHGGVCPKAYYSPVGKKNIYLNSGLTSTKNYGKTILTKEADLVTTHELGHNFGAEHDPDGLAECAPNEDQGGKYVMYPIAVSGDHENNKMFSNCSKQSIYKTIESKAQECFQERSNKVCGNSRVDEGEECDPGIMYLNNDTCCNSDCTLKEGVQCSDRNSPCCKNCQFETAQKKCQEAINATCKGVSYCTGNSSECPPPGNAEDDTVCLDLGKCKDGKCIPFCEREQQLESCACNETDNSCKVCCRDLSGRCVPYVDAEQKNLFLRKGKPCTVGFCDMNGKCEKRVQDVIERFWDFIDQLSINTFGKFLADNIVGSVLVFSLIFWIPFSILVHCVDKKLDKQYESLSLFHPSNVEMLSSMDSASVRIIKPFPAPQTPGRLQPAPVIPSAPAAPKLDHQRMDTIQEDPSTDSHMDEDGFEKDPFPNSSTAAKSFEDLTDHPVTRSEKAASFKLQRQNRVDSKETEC

On to `CC#CCOc1ccc(S(=O)(=O)N2C[C@H](CC(=O)O)SC(C)(C)[C@@H]2C(=O)NO)cc1`, for which inhibition against Collagenase 3 was half-maximal at 7 nM (IC50). Further, the inhibition in [1] amounted to 89%; in data set [2], 73%.
On to `C#CCCCOc1ccc(S(=O)(=O)N2CCSC(C)(C)[C@@H]2C(=O)NO)cc1`, for which the figures for the 50% inhibitory concentration (IC50) (in data set [3]; against Interstitial collagenase; against Collagenase 3) were 40 nM, 11 nM and 8 nM, respectively. In addition, the inhibition in [1] came to 38%; in [2], 16%.
On to `CC#CCOc1ccc(S(=O)(=O)N2C[C@H](CN)SC(C)(C)[C@@H]2C(=O)NO)cc1`, for which the values for the inhibition in data set [1] and in data set [2] were 94% and 78%, respectively. The inhibition in vivo at 50 mg/kg with Mus musculus [4] was ≥ 95%.
As for `CC#CCOc1ccc(S(=O)(=O)N2C[C@H](CNS(C)(=O)=O)SC(C)(C)[C@@H]2C(=O)NO)cc1`, the IC50 in [3] was determined as 11 nM; against Interstitial collagenase it was 19 nM; against Collagenase 3, 14 nM. In addition, the inhibition in data set [1] was determined as 91%; in [2], 81%.
Take `CC1(C)SCCN(S(=O)(=O)c2ccc(OCC#CCO)cc2)[C@H]1C(=O)NO`: the IC50 is 8 nM against Collagenase 3 and 140 nM in [2]. The inhibition is 95% in data set [1] and 89% in data set [2]. The inhibition in vivo at 50 mg/kg with Mus musculus [4] was ≥ 95%. Further, the Papp in data set [5] was 2.2 ×10⁻⁶ cm/s. Besides, it took a dose of 5 mg/kg to reach the 50% effect level in the data set filed under Mus musculus [6] (ED50). Moreover, the figures for the bioavailability in data set [7], in [8] and in data set [9] were 24%, 8% and 36%, respectively.
Turning to `CC1(C)SCCN(S(=O)(=O)c2ccc(OCC#CCCCCO)cc2)[C@H]1C(=O)NO`, the inhibition in [1] was found to be 77%; in data set [2], 52%.
In the case of `CC#CCOc1ccc(S(=O)(=O)N2C[C@H](CCN(CC)CC)SC(C)(C)[C@@H]2C(=O)NO)cc1`, the IC50 is 143 nM in data set [3], 33 nM against Interstitial collagenase and 48 nM on Collagenase 3. In addition, the figures for the inhibition in [1] and in data set [2] were 87% and 67%, respectively. In the data set on Mus musculus [4], the inhibition in vivo at 50 mg/kg was ≥ 95%.
As for `CC1(C)SCCN(S(=O)(=O)c2ccc(OCC#CCCO)cc2)[C@H]1C(=O)NO`, the IC50 in data set [3] is 62 nM; at Interstitial collagenase, 35 nM; against Collagenase 3, 14 nM. In addition, the inhibition in [1] came out at 57%; in [2], 25%.
In the case of `CC1(C)SCCN(S(=O)(=O)c2ccc(OCC#CCCCN)cc2)[C@H]1C(=O)NO`, the IC50 against Collagenase 3 is 9 nM. Moreover, the figures for the inhibition in data set [1] and in data set [2] were 22% and 0%, respectively.
With `C/C=C/COc1ccc(S(=O)(=O)N2CCSC(C)(C)[C@@H]2C(=O)NO)cc1`, the IC50 was determined as 35 nM in data set [3], 7 nM at Interstitial collagenase and 2 nM at Collagenase 3. Further, the inhibition in data set [1] stood at 80%; in data set [2], 50%.
Taken in the same sequence, the figures for `CC(C)(C)OC(=O)NCCC#CCOc1ccc(S(=O)(=O)N2CCSC(C)(C)[C@@H]2C(=O)NO)cc1` were 112 nM, 300 nM, 7 nM, 37% and 14%.
Regarding `CC#CCOc1ccc(S(=O)(=O)N2C[C@H](CC(N)=O)SC(C)(C)[C@@H]2C(=O)NO)cc1`, the inhibition in data set [1] is 91%; in [2] it was 76%.
In the case of `CC(C)(C)OC(=O)NCCCC#CCOc1ccc(S(=O)(=O)N2CCSC(C)(C)[C@@H]2C(=O)NO)cc1`, at Collagenase 3, the IC50 is 2 nM. For the same molecule, the values for the inhibition in [1] and in data set [2] were 27% and 5%, respectively.
Taken in the same sequence, the figures for `CC(C)(C)OC(=O)NCCCCC#CCOc1ccc(S(=O)(=O)N2CCSC(C)(C)[C@@H]2C(=O)NO)cc1` were 4 nM, 70% and 40%.
On to `C#CCOc1ccc(S(=O)(=O)N2CCSC(C)(C)[C@@H]2C(=O)NO)cc1`, for which the IC50 against Interstitial collagenase and on Collagenase 3 was 1 nM each time. Moreover, the results for the inhibition in data set [1] and in [2] were 91% and 76%, respectively.
For `C#CCCOc1ccc(S(=O)(=O)N2CCSC(C)(C)[C@@H]2C(=O)NO)cc1`, the IC50 was 32 nM in data set [3], 2 nM on Interstitial collagenase and 1 nM against Collagenase 3. Further, the inhibition in data set [1] turned out to be 64%; in data set [2] it was 36%.
The like results for `CC1(C)SCCN(S(=O)(=O)c2ccc(OCC#CCCN)cc2)[C@H]1C(=O)NO` were, in that order, 138 nM, 1050 nM, 27 nM, 4% and 0%.
The like results for `CC(C)(C)OC(=O)NCC#CCOc1ccc(S(=O)(=O)N2CCSC(C)(C)[C@@H]2C(=O)NO)cc1` were, in that order, 74 nM, 26 nM, 4 nM, 79% and 53%.
The like results for `CCCCC#CCOc1ccc(S(=O)(=O)N2CCSC(C)(C)[C@@H]2C(=O)NO)cc1` were, in that order, 23 nM, 29 nM, 7 nM, 82% and 48%.
For `C#CC#CCOc1ccc(S(=O)(=O)N2CCSC(C)(C)[C@@H]2C(=O)NO)cc1`, half-maximal inhibition at Interstitial collagenase (IC50) required 6 nM. The inhibition in [1] turned out to be 88%; in [2], 62%.
In the case of `CC#CCOc1ccc(S(=O)(=O)N2CCSC(C)(C)[C@@H]2C(=O)NO)cc1`, the results for the inhibition in [1] and in data set [2] were 94% and 87%, respectively. Besides, the bioavailability in [7] was found to be 71%; in data set [8] it was 5%; in [9], 0%.
On to `CC#CCOc1ccc(S(=O)(=O)N2C[C@H](CCO)SC(C)(C)[C@@H]2C(=O)NO)cc1`, for which the IC50 in data set [3] came to 15 nM; against Interstitial collagenase it was 21 nM; on Collagenase 3, 23 nM. The inhibition in [1] was found to be 90%; in data set [2], 74%. Moreover, in the data set on Mus musculus [4], the inhibition in vivo at 50 mg/kg is ≥ 95%.
Turning to `CC1(C)SCCN(S(=O)(=O)c2ccc(OCC#CCCCO)cc2)[C@H]1C(=O)NO`, the IC50 in data set [3] amounted to 40 nM; at Interstitial collagenase, 159 nM; on Collagenase 3, 86 nM. In addition, the results for the inhibition in [1] and in [2] were 51% and 19%, respectively.
Taken in the same sequence, the figures for `CCCCOc1ccc(S(=O)(=O)N2CCSC(C)(C)[C@@H]2C(=O)NO)cc1` were 42 nM, 7 nM, 9 nM, 38% and 11%.
At Collagenase 3, `CC1(C)SCCN(S(=O)(=O)c2ccc(OCC#CCCCCN)cc2)[C@H]1C(=O)NO` gave an IC50 of 7 nM. Besides, the inhibition worked out at 37% in data set [1] and 13% in data set [2].
Take `CC1(C)SCCN(S(=O)(=O)c2ccc(OCC#CCN)cc2)[C@H]1C(=O)NO`: the results for the IC50 at Interstitial collagenase and against Collagenase 3 were 97 nM and 8 nM, respectively. In addition, the results for the inhibition in data set [1] and in data set [2] were 40% and 10%, respectively.
